Source: patent US20080171779A1, “USE OF 5-HT6 ANTAGONISTS TO PREVENT RELAPSE INTO ADDICTION” (Solvay Pharmaceuticals B.V., priority 2007, published 2008)

Legend:
[1] = test system: cue-induced relapse of alcohol seeking in the rat; assay: Stimulus (cue) induced reinstatement of extinguished self-administration of alcohol; type: in vivo; details: for Nose-pokes after an alcohol induced cue, former alcoholics / Nose-pokes after an alcohol induced cue, total abstainers: 45 min test, mean ± spread; for amount of active nose-pokes versus placebo, cue induced alcohol seeking: one-way ANOVA, Fisher's LSD; for inactive nose-pokes versus placebo, cue induced alcohol seeking: all tested dosages
Description: After learning to consume alcohol 12% (v/v) in a two-bottle paradigm, rats were trained to self-administer alcohol in the operant cage. When response-rates were stable, animals were withdrawn from alcohol for three weeks. Subsequently, the effect of 5-HT6 antagonists on relapse was tested by re-exposing the animals to alcohol-related stimuli.
(§1) Animals: 64 male Wistar rats, weighing 280-300 g at arrival (Harlan, the Netherlands) were used for testing compound 33. The animals were housed individually in a temperature—(T=22±2° C.) and humidity (rel %=60±5%) controlled room on a reversed 12 h light-dark cycle (lights off at 7:00 AM) with water available ad libitum. The animals were on a diet of 18 gr chow per animal per day. The experiment started after one week of acclimatization and lasted 12-14 weeks.
Drug Self-administration: All training and testing was conducted in 16 operant chambers (30.5×24.1×29.2 cm) surrounded by sound attenuating ventilated cubicles (Med Associates, Georgia, Vt.). The chambers were fitted with a grid floor, a red dim house light and opposite the house light an intelligence panel. In the intelligence panel there were two nose-poke holes (Ø2.5 cm) located 5.5 cm above the grid floor and 16 cm separated from each other. A red dim stimulus light was located 12 cm above both nose-poke holes. Between the two nose-poke holes, a receptacle was located, in which the alcohol was delivered. High above the receptacle was a sonalert tone module. […] The alcohol drop was delivered by an infusion pump (PHM-100, MedAssociates, Georgia, Vt.) in 4.2 seconds During alcohol delivery, the active nose-poke hole was illuminated and a tone (±65 dB) was presented by the sonalert tone module for 2 seconds. The receptacle was illuminated for 5 seconds (discrete cues). The stimulus light switched off for 15 seconds (discriminative cue). In this 15 second time-out period, nose-poking was without consequences.
Animals were selected for further testing if they consumed alcohol doses (in the FR4-schedule) above the literature described pharmacological effective dose of 0.3 g/kg/hr (Linseman, 1987). Subsequently, when response behavior on the FR4-schedule was stable, there was a 3 week period of withdrawal in the homecage.
Test for reinstatement: After the withdrawal period, each animal was tested twice for cue induced reinstatement with a week of further extinction training and wash-out in between. Animals were randomly distributed over the different experimental groups and never received the same treatment twice. On test days, the animals were placed in the operant cage for three or four hours (test day 1: 4 hr; test day 2: 3 hr) in absence of alcohol and alcohol related stimuli (discrete and discriminative cues) to extinguish response behavior. One hour before the end of this extinction session, the animal was removed from the operant cage and treated with a 5-HT6 antagonist. After drug administration the animals was placed back into the operant chamber, where the session continued. When the last hour had passed, the cue-induced relapse test session started (duration: 45 min). During this test, the experimental conditions were similar to the conditions during training on an FR4-schedule, with the exceptions that 1) at the beginning of the session, a 12% alcohol drop of 0.20 ml was available (delivered in the receptacle by the experimenter at the begin of the test session) and 2) after every 4th response, only cues were presented (no alcohol was delivered). Tests were operated and raw data was saved by the MED-PC IV program (Tatham, 1989).
Drugs: Alcohol 12% (v/v) was made from alcohol 96% and diluted with tap water. Compound 33 was suspended in 5% Tween 80, 0.25% methylcellulose, 5% PEG 400 and H2O HPLC (65% of end volume). Ethanol was added and evaporated under N2-gas. The pH was adjusted to 5.8. In the range: 0, 3,10, and 30 mg/kg, compound 33 was administered intraperitoneally, 15 minutes before testing. The injection volume was 2 ml/kg. […]

[2] = test system: cue-induced relapse of alcohol seeking in the rat; assay: as above; type: in vivo; details: 20 mg/kg
[3] = test system: cue-induced relapse of nicotine seeking in the rat; assay: Stimulus (cue) induced reinstatement of extinguished self-administration of nicotine; type: in vivo; details: for Nose-pokes after a nicotine induced cue, total abstainers / Nose-pokes after a nicotine induced cue, former nicotine addicts: 30 min test, mean ± spread; for Nose-pokes after a nicotine induced cue, former nicotine addicts: column 'former nicotine addicts'
Description: Using a very similar test protocol, 5-HT6 antagonists were also found to suppress cue-induced nicotine-seeking behavior. Thus 5-HT6 antagonists are believed useful for the preparation of medicaments for preventing relapse into addiction, in particular relapse into addiction to substances of abuse, including opiates, hallucinogens, inhalants, phencyclidine, amphetamines, cocaine, cannabis, nicotine, and alcohol, medicaments for preventing relapse to addiction to certain medicines, including sedatives, hypnotics and anxiolytics, and medicaments for preventing relapse to certain addictive behaviors, including gambling.
as §1, with “32” for “64”, “water and food” for “water”, “libitum.” for “libitum. The animals were on a diet of 18 gr chow per animal per day.”
Surgery: after a week of acclimatization, intravenous silicon catheters are implanted in the right jugular vein under isoflurane anesthesia as described previously in De Vries, 1999.
Drug Self-administration: All training and testing was conducted in 16 operant chambers (30.5×24.1×29.2 cm) surrounded by sound attenuating ventilated cubicles (Med Associates, Georgia, Vt.). The chambers were fitted with a grid floor, a red dim house light and opposite the house light an intelligence panel. In the intelligence panel there were two nose-poke holes (Ø2.5 cm) located 5.5 cm above the grid floor and 16 cm separated from each other. A red dim stimulus light was located 12 cm above both nose-poke holes. A tone module was located at the top of the center of the intelligence panel. During self-administration, animals were connected to an infusion pump (PHM-100, Med Associates, Georgia, V.T.) by a swivel to receive intravenous infusions of nicotine (40 μg/kg/inf). […] During this infusion, the active nose poke hole was illuminated (yellow light) and an audio stimulus was presented (tone of 2900 Hz and 65 dB for 2 seconds) (discrete cues). From the moment of nicotine delivery, the stimulus light switched off for 15 seconds (discriminative cue). In this time-out period, nose poking was without consequences.
Acquisition, withdrawal and reinstatement: Behavioral training started 5-7 days after surgery. […] When response behavior was stable, animals were selected for further testing if they earned at least 5 rewards during the last three sessions of the FR3 schedule and the reward delivery was equal distributed over the session. Subsequently, responding for nicotine was extinguished. In this extinction phase (11 daily sessions of 60 min), the animals were placed in the operant chambers, but the nicotine and nicotine related stimuli (discrete and discriminative cues) were not available. Finally, the animals were tested for cue-induced reinstatement. During this test (duration of 30 minutes), the experimental conditions were similar to the conditions during training on an FR3-schedule, with the exception that no nicotine was available and the animals were not connected to the swivel.
Tests for cue-induced reinstatement were conducted twice; between these two test days, there was a week of further extinction training (wash-out period). During cue-induced reinstatement, effects of 5-HT6 antagonists were studied on output measurements.
Drugs: Nicotine for self-administration: (−) nicotine hydrogen tartrate salt (Sigma, St Louis, Mo.) was dissolved in sterile saline. The pH of the solution was adjusted to +/−7.4 with diluted NaOH. Nicotine dose was expressed as free base weight. Compound 33 was suspended in 5% of end volume Tween 80. Ethanol was added and evaporated under N2-gas for 30 minutes. […] After the pH was adjusted to 5.5, 10% of end volume H2O HPLC was added. […]

[4] = test system: relapse behavior induced by conditioned drug cues (cocaine, heroin, nicotine, alcohol); details: cues previously associated with cocaine, nicotine and alcohol delivery; cited from earlier work

COc1ccc(NS(=O)(=O)c2sc3ccc(Cl)cc3c2C)cc1N1CCNCC1.Cl [SB-271046, reference compound]
Nose-pokes after an alcohol induced cue, former alcoholics ([1]; 3 mg/kg): 11.9 ± 5.4
Nose-pokes after an alcohol induced cue, total abstainers ([1]; 3 mg/kg): 1.1 ± 0.5
Nose-pokes after an alcohol induced cue, total abstainers ([1]; 10 mg/kg): 0.9 ± 0.5
amount of active nose-pokes versus placebo, cue induced alcohol seeking ([1]; 10 mg/kg, p<0.05): significantly lower
inactive nose-pokes versus placebo, cue induced alcohol seeking [1]: no significant difference
relapse into addiction (alcohol) [2]: prevented from relapse into addiction
Nose-pokes after an alcohol induced cue, total abstainers ([2]; 'total abstainers', 45 min test, mean ± spread): 2.7 ± 1.9
amount of active nose-pokes versus placebo, cue induced alcohol seeking ([2]; one-way ANOVA, Fisher's LSD, p<0.005): significantly lower

CCN/C(=N\S(=O)(=O)c1cccc(Cl)c1)N1CC(C)(C)C=N1 [compound 33]
Nose-pokes after an alcohol induced cue, former alcoholics ([1]; 3 mg/kg): 27.0 ± 6.1
Nose-pokes after an alcohol induced cue, total abstainers ([1]; 3 mg/kg): 1.1 ± 0.2
Nose-pokes after an alcohol induced cue, former alcoholics ([1]; 10 mg/kg): 23.5 ± 4.2
Nose-pokes after an alcohol induced cue, total abstainers ([1]; 10 mg/kg): 2.2 ± 1.5
relapse into addiction (alcohol) ([1]; 30 mg/kg): prevented from relapse into addiction
Nose-pokes after an alcohol induced cue, total abstainers ([1]; 30 mg/kg): 0.8 ± 0.1
amount of active nose-pokes versus placebo, cue induced alcohol seeking ([1]; 30 mg/kg, p<0.005): significantly lower
inactive nose-pokes versus placebo, cue induced alcohol seeking [1]: no significant difference
Nose-pokes after a nicotine induced cue, total abstainers ([3]; 3 mg/kg intraperitoneally): 4.58 ± 1.17
Nose-pokes after a nicotine induced cue, former nicotine addicts ([3]; 3 mg/kg intraperitoneally): 24.83 ± 3.20
Nose-pokes after a nicotine induced cue, total abstainers ([3]; 10 mg/kg intraperitoneally): 3.00 ± 1.04
Nose-pokes after a nicotine induced cue, former nicotine addicts ([3]; 10 mg/kg intraperitoneally): 28.50 ± 7.40
relapse into addiction (nicotine) ([3]; 30 mg/kg): prevented from relapse into addiction
Nose-pokes after a nicotine induced cue, total abstainers ([3]; 30 mg/kg intraperitoneally): 1.75 ± 0.74
amount of active nose-pokes versus placebo, cue induced nicotine seeking ([3]; 30 mg/kg, one-way ANOVA, Fisher's LSD, p<0.05): significantly lower
inactive nose-pokes versus placebo, cue induced nicotine seeking ([3]; all tested dosages): no significant difference

Cc1c(C(=O)NN2CCCCC2)nn(-c2ccc(Cl)cc2Cl)c1-c1ccc(Cl)cc1 [SR141716A]
relapse behavior induced by conditioned drug cues [4]: able to selectively reduce relapse behavior
